Key:
[1] = tested on: gamma oscillations in mouse hippocampal slices; assay: Rescue of gamma oscillations previously degraded by Aβ in hippocampal slices (submerged chamber); format: cell-based; details: 5 μM compound applied after 20 min of 1 μM Aβ, Aβ still present
Procedure: Hippocampal slices were placed in a submerged recording chamber where gamma oscillations were induced by bath perfusion of 100 nM KA and allowed to stabilize for 20-30 min. Continuous recordings of LFP gamma oscillations were performed in 4 different conditions (FIG. 5). All groups were initially activated with Kainate. In a control group of slices oscillations were recorded for 40 min after stabilization without any other compound addition (control, n=5, grey). All other groups were perfused with 1 μM Aβ after stabilization of the oscillations for a minimum of 20 min. For these experiments the concentration of Aβ applied was increased to 1 μM in order to overcome the method-dependent lower signal amplitude due to the submerged recording conditions (8).
Hippocampal slices were placed on a submerged recording chamber where gamma oscillations were induced by bath perfusion of 100 nM Kainate and allowed to stabilize for 20-30 minutes. Continuous recordings of LFP gamma oscillations were performed in 3 different conditions. All groups were initially activated with kainate. In a control group of slices oscillations were recorded for 40 minutes after their stabilization without any other compound addiction (control, n=5; see FIG. 5). All the other groups were perfused with Aβ 1 μM after the stabilization of the oscillations for a minimum of 20 minutes.

[2] = tested on: hippocampal CA3 pyramidal cells; assay: Patch-clamp EPSC/IPSC recordings after Aβ; format: cell-based, mouse; details: 5 μM, after 1 μM Aβ, 100 nM KA
Procedure: In this study, we recorded spontaneous synaptic activity in hippocampal CA3 pyramidal cells activated with 100 nM KA (20 min) in a submerged recording chamber. […] In contrast to its action on EPSCs, application of Aβ resulted, as previously shown, in decreased GABA receptor mediated IPSCs (FIG. 6D). […] Patch-clamp (whole-cell) recordings were performed from visually identified CA3 PC using The SliceScope (Scientifica, UK). Action Potentials (APs) were recorded from pyramidal cells in area CA3 as single units (submerged chamber) using standard ACSF-containing patch electrodes. For EPSC recordings (Vh=-70 mV) a potassium-based intracellular solution was used (in mM): 122.5 K-gluconate, 17.5 KCl, 4 […], 0.2 EGTA, 2 MgCl, set to pH 7.2-7.3 with KOH, osmolarity 270-280 mOsm. For IPSC recordings (Vh=0 mV) a cesium-based intracellular solution was used (in mM): 140 CsMeSO4, 10 HEPES, 0.2 […]-314, set to pH 7.2-7.4 with CsOH, osmolarity 270-280 mOsm. EPSCs and IPSCs were detected off-line using MiniAnalysis software (Synaptosoft, Decatur, Ga., USA). Charge transfer, event amplitude and inter-event-interval (IEI) were analyzed using Microsoft Excel for Mac 2011 (Microsoft Office) and GraphPad Prism (GraphPad Software, USA) with the result representing average values taken over 1 min periods.

[3] = tested on: Drosophila melanogaster model expressing pan-neuronally human Aβ1-42 peptide; assay: Negative geotaxis climbing assay in Aβ-expressing Drosophila; details: for individuals reached the top of the climbing column: ElavArc2E flies, 5 μM in food from day 1 after hatching
Procedure: The data shown represent results from a cohort of flies tested every 10 days for 35 days. Data are presented as average±SEM. Results were tested for significance using ANOVA with Bonferroni Post Test to compare all different groups. […] Viable flies were counted daily to assess differences in longevity between wild type and experimental flies and between experimental not treated or treated with the compounds. […] Briefly, flies display a negative geotaxis response when given a mechanical stimulus. When tapped to the bottom of a vial, flies normally orient themselves rapidly and begin to climb to the top. […] FIG. 11A). […] Approximately 10 flies were placed in an empty plastic vial. The vial was gently tapped to knock the flies to the bottom and the flies were recorded during their subsequent climbing to the top of the vial (negative geotaxis). […] The data shown represent results from a cohort of flies tested every 10 days for 35 days.

SMILES	gamma power after treatment application, relative to Aβ [1]	rescue of Aβ induced increase in EPSCs frequency, amplitude and charge transfer [2]	rescue of Aβ-induced decrease in IPSCs (frequency, amplitude, charge transfer) [2]	individuals reached the top of the climbing column ([3]; at 5 days)	individuals reached the top of the climbing column ([3]; at 15 days)	individuals reached the top of the climbing column ([3]; at 25 days)	effect of the drug on control strains in the behavioural test ([3]; control fly strains given the drug)
OC1(c2ccc(Cl)c(C(F)(F)F)c2)CCN(CCCC(c2ccc(F)cc2)c2ccc(F)cc2)CC1 [Penfluridol]	2.29±0.38 of Aβ	completely rescued	neither Pimozide nor Penfluridol were able to rescue				
O=c1[nH]c2ccccc2n1C1CCN(CCCC(c2ccc(F)cc2)c2ccc(F)cc2)CC1 [Pimozide]				97.4±0.3%	83.2±0.6%	38.3±0.5%	no adverse effect
